According to US11319303B2 (WIGEN BIOMEDICINE TECHNOLOGY (SHANGHAI) CO., LTD., priority 2017, dated 2022):
Structures can show the parent of a compound that is named as a salt.

molecular target: LC3B (Homo sapiens, UniProt Q9GZQ8); experiment: Fluorescence Polarization (FP) Assay: displacement of FITC-labeled peptide from GST-LC3B; type: binding; settings: not given
Procedure: The compounds of the present invention for regulating the autophagy-related protein LC3B were tested by Fluorescence Polarization (FP) Assay.
Fluorescence Polarization (FP) Assay Test

For `CN(C)CCNC=C1C(=O)CC(c2cccc(F)c2Br)CC1=O` (stereo not drawn) [Compound 350, 5-(2-bromo-3-fluorophenyl)-2-(((2-(dimethylamino)ethyl)amino)methylene) cyclohexane-1,3-dione], the IC50 was under 3 µM.

same assay, conditions: Fluorescence Polarization assay; GST-LC3B 180 nM, FITC-labeled peptide 18 nM, 25° C.; read-out: IC50

`C[S+]([O-])CCNC=C1C(=O)CC(c2ccccc2)CC1=O` (stereo not drawn) [Compound 207, 2-(((2-(methylsulfinyl)ethyl)amino)methylene)-5-phenylcyclohexane-1,3-dione] and `CSCCNC=C1C(=O)CC(c2ccccc2)CC1=O` (stereo not drawn) [Compound 206, 2-(((2-(methylthio)ethyl)amino)methylene)-5-phenylcyclohexane-1,3-dione] fall in the same range of IC50: 15 to 100 µM for the first, 15 to 100 µM for the second.

Compared with `CCC(=O)N1CCN(CCNC=C2C(=O)CC(c3ccccc3)CC2=O)CC1` (stereo not drawn) [Compound 215, 5-phenyl-2-(((2-(4-propionylpiperazin-1-yl)ethyl)amino)methylene) cyclohexane-1,3-dione], `CC(=O)NCCNC=C1C(=O)CC(c2ccccc2)CC1=O` (stereo not drawn) [Compound 176, N-(2-(((2,6-dioxo-4-phenylcyclo-hexylidene)methyl)amino)ethyl) acetamide] is higher in IC50: under 3 µM for the first, 100 to 1000 µM for the second. The first is the more potent here.

`CN(C)CCNC=C1C(=O)CC(C(=O)Nc2ccccc2)CC1=O` (stereo not drawn) [Compound 343, 4-(((2-(dimethylamino)ethyl)amino)methylene)-3,5-dioxo-N-phenylcyclohexane-1-carboxamide] and `CN(C)CCNC=C1C(=O)CC(c2ccccc2O)CC1=O` (stereo not drawn) [Compound 308, 2-(((2-(dimethylamino)ethyl)amino)methylene)-5-(2-hydroxyphenyl) cyclohexane-1,3-dione] fall in the same range of IC50: 3 to 15 µM for the first, 3 to 15 µM for the second.

`COCCOc1ccc(C2CC(=O)C(=CNCCN3CCN(CCO)CC3)C(=O)C2)cc1` (stereo not drawn) [Compound 44, 2-(((2-(4-(2-hydroxyethyl)piperazin-1-yl)ethyl)amino)methylene)-5-(4-(2-methoxyethoxy)phenyl) cyclohexane-1,3-dione] and `COCCOCCOc1ccc(C2CC(=O)C(=CNCCN3CCN(CCO)CC3)C(=O)C2)cc1` (stereo not drawn) [Compound 45, 2-(((2-(4-(2-hydroxyethyl)piperazin-1-yl)ethyl)amino)methylene)-5-(4-(2-(2-methoxyethoxy)ethoxy)phenyl) cyclohexane-1,3-dione] fall in the same range of IC50: 15 to 100 µM for the first, 15 to 100 µM for the second.

Compared with `O=C1CC(c2ccccc2)CC(=O)C1=CNc1cccc2c1CNC2=O` (stereo not drawn) [Compound 355, 2-(((1-oxoisoindolin-4-yl)amino)methylene)-5-phenylcyclohexane-1,3-dione], `Cc1cccc(CNC=C2C(=O)CC(c3ccccc3)CC2=O)n1` (stereo not drawn) [Compound 203, 2-((((6-methylpyridin-2-yl)methyl)amino)methylene)-5-phenylcyclohexane-1,3-dione] is higher in IC50: under 3 µM for the first, 3 to 15 µM for the second.

`Cc1ccc(NC(=O)N2CCN(CCNC=C3C(=O)CC(c4ccc(C)cc4)CC3=O)CC2)cc1` (stereo not drawn) [Compound 224, 4-(2-(((2,6-dioxo-4-(p-tolyl)cyclohexylidene)methyl)amino)ethyl)-N-(p-tolyl)piperazine-1-carboxamide] and `O=C1CC(c2ccc(-c3ccncc3)cc2)CC(=O)C1=CNCCN1CCN(CCO)CC1` (stereo not drawn) [Compound 73, 2-(((2-(4-(2-hydroxyethyl)piperazin-1-yl)ethyl)amino)methylene)-5-(4-(pyridin-4-yl)phenyl) cyclohexane-1,3-dione] cannot be ordered by IC50: under 3 µM for the first, under 3 µM for the second.

Compared with `O=C1CC(c2cccs2)CC(=O)C1=CO` (stereo not drawn) [Compound 453, 2-(hydroxy-methylene)-5-(2-thiophen)cyclo-hexane-1,3-dione lithium salt], `CN(C)C=C1C(=O)CC(c2cccs2)CC1=O` (stereo not drawn) [Compound 264, 2-((dimethylamino)methylene)-5-(thiophen-2-yl)cyclohexane-1,3-dione] is lower in IC50: 3 to 15 µM for the first, under 3 µM for the second. The second is the more potent here.

`O=C1CC(c2ccccc2)CC(=O)C1=CNCCCCl` (stereo not drawn) [Compound 133, 2-(((3-chloropropyl)amino)methylene)-5-phenylcyclohexane-1,3-dione] and `O=C1CC(c2ccccc2)CC(=O)C1=CNCc1ccc(Cl)cn1` (stereo not drawn) [Compound 204, 2-((((5-chloropyridin-2-yl)methyl)amino)methylene)-5-phenylcyclohexane-1,3-dione] fall in the same range of IC50: 100 to 1000 µM for the first, 100 to 1000 µM for the second.

First: CCOC(=O)C1C(=O)/C(=C\NCCN2CCN(CCO)CC2)C(=O)CC1c1cccc2[nH]ccc12 (stereo not drawn) [Compound 330, ethyl 3-(((2-(4-(2-hydroxyethyl)piperazin-1-yl)ethyl)amino)methylene)-6-(1H-indol-4-yl)-2,4-dioxocyclohexane-1-carboxylate]
Second: CC1C(=O)C(=CNCCN2CCN(CCO)CC2)C(=O)CC1c1ccccc1 (stereo not drawn) [Compound 116, 2-(((2-(4-(2-hydroxyethyl)piperazin-1-yl)ethyl)amino)methylene)-4-methyl-5-phenylcyclohexane-1,3-dione]
The IC50 of the first is higher: 3 to 15 µM for the first, under 3 µM for the second.

First: O=C1CN(c2ccccc2)CC(=O)C1=CNCCN1CCN(CCO)CC1 [Compound 97, 4-(((2-(4-(2-hydroxyethyl)piperazin-1-yl)ethyl)amino)methylene)-1-phenylpiperidine-3,5-dione]
Second: CC1(C#N)C(=O)C(=CNCCN2CCN(CCO)CC2)C(=O)CC1c1ccccc1 (stereo not drawn) [Compound 336, 3-(((2-(4-(2-hydroxyethyl)piperazin-1-yl)ethyl)amino)methylene)-1-methyl-2,4-dioxo-6-phenylcyclohexane-1-carbonitrile]
The IC50 of the first is higher: 15 to 100 µM for the first, 3 to 15 µM for the second. The second is the more potent here.

First: O=C1CC(c2ccc(OC(F)(F)F)cc2)CC(=O)C1=CNCCN1CCN(CCO)CC1 (stereo not drawn) [Compound 50, 2-(((2-(4-(2-hydroxyethyl)piperazin-1-yl)ethyl)amino)methylene)-5-(4-(trifluoromethoxy)phenyl) cyclohexane-1,3-dione]
Second: O=C1CC(c2ccc(OCCOc3ccncc3)cc2)CC(=O)C1=CNCCN1CCN(CCO)CC1 (stereo not drawn) [Compound 71, 2-(((2-(4-(2-hydroxyethyl)piperazin-1-yl)ethyl)amino)methylene)-5-(4-(2-(pyridin-4-yloxy)ethoxy)phenyl) cyclohexane-1,3-dione]
The IC50 of the first is lower: under 3 µM for the first, 15 to 100 µM for the second. The first is the more potent here.

First: O=C1CC(c2cncnc2)CC(=O)C1=CNCCN1CCN(CCO)CC1 (stereo not drawn) [Compound 90, 2-(((2-(4-(2-hydroxyethyl)piperazin-1-yl)ethyl)amino)methylene)-5-(pyrimidin-5-yl)cyclohexane-1,3-dione]
Second: O=C1CC(c2ccc(Nc3nccs3)nc2)CC(=O)C1=CNCCN1CCN(CCO)CC1 (stereo not drawn) [Compound 83, 2-(((2-(4-(2-hydroxyethyl)piperazin-1-yl)ethyl)amino)methylene)-5-(6-(thiazol-2-ylamino)pyridin-3-yl)cyclohexane-1,3-dione]
The IC50 of the first is higher: 100 to 1000 µM for the first, 15 to 100 µM for the second.

First: O=C1CC(c2cnc3c(N4CCOCC4)nccn23)CC(=O)C1=CNCCN1CCN(CCO)CC1 (stereo not drawn) [Compound 25, 2-(((2-(4-(2-hydroxyethyl)piperazin-1-yl)ethyl)amino)methylene)-5-(8-morpholinoimidazo [1,2-a]pyrazin-3-yl) cyclohexane-1,3-dione]
Second: O=C1CC(c2ccc(C(=O)N3CCOCC3)cc2)CC(=O)C1=CNCCN1CCN(CCO)CC1 (stereo not drawn) [Compound 77, 2-(((2-(4-(2-hydroxyethyl)piperazin-1-yl)ethyl)amino)methylene)-5-(4-(morpholine-4-carbonyl)phenyl) cyclohexane-1,3-dione]
The IC50 of the first is higher: 100 to 1000 µM for the first, 15 to 100 µM for the second. The second is the more potent here.

`CN(C)CCNC=C1C(=O)CC(c2cc(F)ccc2Br)CC1=O` (stereo not drawn) [Compound 349, 5-(2-bromo-5-fluorophenyl)-2-(((2-(dimethylamino)ethyl)amino)methylene) cyclohexane-1,3-dione] and `CN(C)CCNC=C1C(=O)CC(c2cc(F)ccc2Cl)CC1=O` (stereo not drawn) [Compound 351, 5-(2-chloro-5-fluorophenyl)-2-(((2-(dimethylamino)ethyl)amino)methylene) cyclohexane-1,3-dione] cannot be ordered by IC50: under 3 µM for the first, under 3 µM for the second.

First: CN(C)CCNC=C1C(=O)CC(c2ccccc2)C(F)C1=O (stereo not drawn) [Compound 209, 2-(((2-(dimethylamino)ethyl)amino)methylene)-4-fluoro-5-phenylcyclohexane-1,3-dione]
Second: NC1CC(NC=C2C(=O)CC(c3ccccc3)CC2=O)C1 (stereo not drawn) [Compound 173, 2-(((3-aminocyclobutyl)amino)methylene)-5-phenylcyclohexane-1,3-dione hydrochloride]
The IC50 of the first is lower: under 3 µM for the first, 15 to 100 µM for the second.

First: O=C1CC(c2cccc3[nH]ccc23)CC(=O)C1=CO (stereo not drawn) [Compound 459, 2-(hydroxy-methylene)-5-(1H-indol-4-yl)cyclo-hexane-1,3-dione lithium salt]
Second: Cc1ccccc1Cc1ccccc1C1CC(=O)C(=CN(C)C)C(=O)C1 (stereo not drawn) [Compound 289, 2-((dimethylamino)methylene)-5-(2-(2-methylbenzyl)phenyl) cyclohexane-1,3-dione]
The IC50 of the first is lower: under 3 µM for the first, 3 to 15 µM for the second.

First: COCCn1ccc2c(C3CC(=O)C(=CNCCN4CCN(CCO)CC4)C(=O)C3)ccnc21 (stereo not drawn) [Compound 19, 2-(((2-(4-(2-hydroxyethyl)piperazin-1-yl)ethyl)amino)methylene)-5-(1-(2-methoxyethyl)-1H-pyrrolo[2,3-b]pyridin-4-yl)cyclohexane-1,3-dione]
Second: COCCOc1ccccc1C1CC(=O)C(=CNCCN2CCN(CCO)CC2)C(=O)C1 (stereo not drawn) [Compound 42, 2-(((2-(4-(2-hydroxyethyl)piperazin-1-yl)ethyl)amino)methylene)-5-(2-(2-methoxyethoxy)phenyl) cyclohexane-1,3-dione]
The IC50 of the first is higher: 15 to 100 µM for the first, 3 to 15 µM for the second.

Compared with `O=C1CC(c2ccc(-c3ncnc4[nH]cnc34)cc2)CC(=O)C1=CNCCN1CCN(CCO)CC1` (stereo not drawn) [Compound 33, 5-(4-(9H-purin-6-yl)phenyl)-2-(((2-(4-(2-hydroxyethyl)piperazin-1-yl)ethyl)amino)methylene)cyclohexane-1,3-dione], `O=C1CC(c2ccccc2-c2ccncc2)CC(=O)C1=CNCCN1CCN(CCO)CC1` (stereo not drawn) [Compound 188, 2-(((2-(4-(2-hydroxyethyl)piperazin-1-yl)ethyl)amino)methylene)-5-(2-(pyridin-4-yl)phenyl) cyclohexane-1,3-dione] is lower in IC50: 15 to 100 µM for the first, 3 to 15 µM for the second.

Compared with `O=C1C=C(c2ccccc2)OC(=O)C1=CO` [Compound 448, 3-(hydroxymethylene)-6-phenyl-2H-pyran-2,4(3H)-dione], `CN(C)C=C1C(=O)CC(c2cccnc2)CC1=O` (stereo not drawn) [Compound 257, 2-((dimethylamino)methylene)-5-(pyridin-3-yl)cyclohexane-1,3-dione] is higher in IC50: 3 to 15 µM for the first, 15 to 100 µM for the second.
